# Values quoted from earlier work as cited in US20200246404A1, “FORMULATIONS” (Molecular Infusions, LLC, priority 2017, published 2020).
# Assays:
# encephalitogenic T cells = encephalitogenic T cells after in vivo application to rats
# human PBMCs = human PBMCs in vitro
Structure (SMILES),release of IFN-γ and IL-17 (encephalitogenic T cells),release of IFN-γ and IL-17 (human PBMCs),duration of action for psychoactive effects (in vivo) [h],administered dose that reaches the systemic circulation (oral) [%]
CCOC(=O)C(C)=O [Ethyl pyruvate],efficiently suppressed,efficiently suppressed,,
"CCCCCc1cc(O)c2c(c1)OC(C)(C)[C@@H]1CCC(C)=C[C@@H]21 [dronabinol, Synthetic Δ9-tetrahydrocannabinol]",,,4 to 6,10 to 20
